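Where inhibition never reached the appropriate level, the endpoint shown equals the highest concentration tested. Otherwise, values were interpolated linearly from a five-concentration, 48-hour dose response in 96-well plates. Definition used: TGI = concentration required for complete inhibition of growth.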

Some test systems named below: CCRF-CEM leukemia; COLO 205 colon; DU-145 prostate; HCT-15 colon; HOP-92 NSCLC; HS 578T breast; MOLT-4 leukemia; OVCAR-5 ovarian; SF-295 CNS; SK-MEL-5 melanoma; SW-620 colon; T-47D breast; U251 CNS; HCT-116 colon.
Holding throughout (experiment): NCI anticancer screen, dose series, 48 h

With `C[C@@]12[C@H]3CC[C@@H]1[C@H](O)C(=O)N2CC3`, the TGI in the experiment with CCRF-CEM leukemia, in the experiment on COLO 205 colon, in the experiment with DU-145 prostate, in the experiment with HCT-15 colon, in the experiment on HOP-92 NSCLC and with HS 578T breast was above 100 µM in each case. The TGI with MOLT-4 leukemia, in the experiment on OVCAR-5 ovarian, in the experiment on SF-295 CNS, in the experiment with SK-MEL-5 melanoma, with SW-620 colon and in the experiment with T-47D breast was above 100 µM each time. Moreover, the TGI with U251 CNS is above 100 µM.
Turning to `CC(C)Sc1nc(C#N)cc2c1CCCC2`, the TGI was 55.8 µM in the experiment with CCRF-CEM leukemia; 50.1 µM with COLO 205 colon; above 100 µM with DU-145 prostate; above 100 µM in the experiment with HCT-116 colon; above 100 µM in the experiment on HCT-15 colon; 93.5 µM in the experiment with HOP-92 NSCLC. The TGI was 61.6 µM in the experiment with MOLT-4 leukemia; above 100 µM in the experiment on OVCAR-5 ovarian; above 100 µM in the experiment on SF-295 CNS; 33.2 µM in the experiment on SK-MEL-5 melanoma; above 100 µM in the experiment with SW-620 colon; above 100 µM with T-47D breast. This compound also had a TGI in the experiment with U251 CNS above 100 µM.
With `CC(C)=CCOC(=O)C(C)=[N+]=[N-]`, the TGI with COLO 205 colon, in the experiment on DU-145 prostate, in the experiment on HCT-116 colon, with HCT-15 colon, with HS 578T breast and with MOLT-4 leukemia was above 100 µM each time. Also, the TGI in the experiment on OVCAR-5 ovarian, in the experiment on SF-295 CNS, in the experiment with SK-MEL-5 melanoma, in the experiment on SW-620 colon, with T-47D breast and with U251 CNS was above 100 µM each time.
`CC[C@]1(Cc2ccc(OC)c(OC)c2)CN(S(=O)(=O)c2ccc(C)cc2)C[C@@H]1OC(C)=O`: the TGI in the experiment with CCRF-CEM leukemia, in the experiment on COLO 205 colon, in the experiment with DU-145 prostate, with HCT-15 colon, in the experiment with HOP-92 NSCLC and with HS 578T breast was above 100 µM each time. The TGI in the experiment on MOLT-4 leukemia, in the experiment with OVCAR-5 ovarian, in the experiment on SF-295 CNS, in the experiment on SK-MEL-5 melanoma, in the experiment with SW-620 colon and with T-47D breast was above 100 µM throughout. For the same compound, the TGI in the experiment on U251 CNS is above 100 µM.
For the compound `NC(=O)N/N=C(\Cc1nc2ccc(Cl)cc2[nH]c1=O)C(=O)Nc1ccc(Cl)cc1Cl`, the TGI with CCRF-CEM leukemia, in the experiment with COLO 205 colon, in the experiment on DU-145 prostate, in the experiment with HCT-116 colon, in the experiment with HCT-15 colon and in the experiment with HS 578T breast was above 100 µM in each case. For the same compound, the TGI with MOLT-4 leukemia, in the experiment on OVCAR-5 ovarian, with SF-295 CNS, in the experiment on SK-MEL-5 melanoma, in the experiment with SW-620 colon and in the experiment on T-47D breast was above 100 µM each time. In the experiment with U251 CNS, this compound yielded a TGI above 100 µM.
As to `NC(C(F)(F)F)(C(F)(F)F)P(=O)(Cc1ccccc1)Cc1ccccc1`, the TGI in the experiment on CCRF-CEM leukemia, in the experiment with COLO 205 colon, in the experiment with DU-145 prostate, in the experiment on HCT-116 colon, in the experiment with HCT-15 colon and with HS 578T breast was above 100 µM in each case. Also, the TGI in the experiment with MOLT-4 leukemia, in the experiment with OVCAR-5 ovarian, with SF-295 CNS, in the experiment on SK-MEL-5 melanoma, in the experiment with SW-620 colon and in the experiment with T-47D breast was above 100 µM each time. Further, the TGI in the experiment on U251 CNS is above 100 µM.
Consider `OCCCCCNc1c2ccccc2nc2ccccc12`, for which the TGI in the experiment with CCRF-CEM leukemia is above 61.7 µM; with COLO 205 colon it was 4.54 µM; with DU-145 prostate, 25.3 µM; in the experiment with HCT-116 colon, 21.1 µM; in the experiment on HCT-15 colon, 13.9 µM; in the experiment with HS 578T breast, 8.57 µM. For the same compound, the TGI is above 63.3 µM in the experiment on MOLT-4 leukemia; 10.2 µM with OVCAR-5 ovarian; 10.5 µM in the experiment with SF-295 CNS; 3.95 µM in the experiment with SK-MEL-5 melanoma; 15.9 µM with SW-620 colon; 8.38 µM in the experiment with T-47D breast. In the experiment with U251 CNS, this compound gave a TGI of 20.8 µM.
On to `O=C(Nc1ccc(Br)cc1)c1c(-c2ccccc2)c2ccc(O)cc2oc1=O`, for which the TGI in the experiment with CCRF-CEM leukemia, in the experiment with COLO 205 colon, in the experiment with DU-145 prostate, in the experiment with HCT-15 colon, in the experiment with HOP-92 NSCLC and in the experiment on HS 578T breast was above 10 µM in each case. Further, the TGI in the experiment on MOLT-4 leukemia, with OVCAR-5 ovarian, with SF-295 CNS, in the experiment on SK-MEL-5 melanoma, in the experiment with SW-620 colon and in the experiment on T-47D breast was above 10 µM throughout. This compound had a TGI with U251 CNS above 10 µM.
`CC(C)c1ccc2[nH]c(O)c(-c3[nH]c4ccccc4c3N=O)c2c1`: the TGI was determined as 12.9 µM in the experiment with CCRF-CEM leukemia; 18.1 µM in the experiment on COLO 205 colon; 20.8 µM in the experiment on DU-145 prostate; 14 µM in the experiment with HCT-116 colon; 14.8 µM in the experiment with HCT-15 colon; 17.7 µM in the experiment on HS 578T breast. Moreover, the TGI came to 15.1 µM in the experiment on MOLT-4 leukemia; 30.5 µM in the experiment with OVCAR-5 ovarian; 16.3 µM in the experiment on SF-295 CNS; 15.8 µM with SK-MEL-5 melanoma; 25.2 µM in the experiment on SW-620 colon; 25.4 µM with T-47D breast. The TGI in the experiment with U251 CNS was 19.9 µM.
With `CCCCCCCCCCCCCCCCCCNc1ccn(C2OC(COP(=O)(O)OCC3OC(n4ccc(NC(=O)CCCCCCCCCCCCCCCCC)nc4=O)C(OC(C)=O)C3OC(C)=O)C(OC(C)=O)C2OC(C)=O)c(=O)n1` (centres undefined), the TGI with CCRF-CEM leukemia, in the experiment with COLO 205 colon, with DU-145 prostate, with HCT-116 colon, in the experiment on HCT-15 colon and in the experiment on HS 578T breast was above 100 µM throughout. The TGI with MOLT-4 leukemia, in the experiment on OVCAR-5 ovarian, with SF-295 CNS, in the experiment on SK-MEL-5 melanoma, with SW-620 colon and in the experiment with T-47D breast was above 100 µM in each case. Besides, in the experiment on U251 CNS, the TGI was above 100 µM.

Source of the values: PubChem BioAssay (NCI).
